Measurements from the supplement of paper PMC10307832.

Legend:
Experiment in all cases: relative viability (nuclei count vs DMSO), 5 days (fraction); higher = more cells survive
17-AAG + Palbociclib = compound: C=CCNC1=C2C[C@@H](C)C[C@H](OC)[C@H](O)[C@@H](C)/C=C(\C)[C@H](OC(N)=O)[C@@H](OC)/C=C\C=C(/C)C(=O)NC(=CC1=O)C2=O [17-AAG] + CC(=O)c1c(C)c2cnc(Nc3ccc(N4CCNCC4)cn3)nc2n(C2CCCC2)c1=O [Palbociclib] (partner 0.5 µM)
Method in brief: (§1)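 Relative viability is defined as nuclei in treated wells over nuclei in vehicle wells. Duplicate plates were run and medians reported. Lung cancer cell lines in 1536-well plates were dosed by pin tool one day after seeding, with one drug or with a fixed anchor-drug dose plus five library-drug doses (not always all listed) in √10 steps, and nuclei were counted after 5 days.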

17-AAG + Luminespib = compound: C=CCNC1=C2C[C@@H](C)C[C@H](OC)[C@H](O)[C@@H](C)/C=C(\C)[C@H](OC(N)=O)[C@@H](OC)/C=C\C=C(/C)C(=O)NC(=CC1=O)C2=O [17-AAG] + CCNC(=O)c1noc(-c2cc(C(C)C)c(O)cc2O)c1-c1ccc(CN2CCOCC2)cc1 [Luminespib] (partner 0.01 µM)
Method in brief: as §1

17-AAG + OSI-027 = compound: C=CCNC1=C2C[C@@H](C)C[C@H](OC)[C@H](O)[C@@H](C)/C=C(\C)[C@H](OC(N)=O)[C@@H](OC)/C=C\C=C(/C)C(=O)NC(=CC1=O)C2=O [17-AAG] + COc1cccc2cc(-c3nc([C@H]4CC[C@H](C(=O)O)CC4)n4ncnc(N)c34)[nH]c12 [OSI-027] (partner 0.5 µM)
Method in brief: as §1

17-AAG + Pictilisib = compound: C=CCNC1=C2C[C@@H](C)C[C@H](OC)[C@H](O)[C@@H](C)/C=C(\C)[C@H](OC(N)=O)[C@@H](OC)/C=C\C=C(/C)C(=O)NC(=CC1=O)C2=O [17-AAG] + CS(=O)(=O)N1CCN(Cc2cc3nc(-c4cccc5[nH]ncc45)nc(N4CCOCC4)c3s2)CC1 [Pictilisib] (partner 1 µM)
Method in brief: as §1

Row | Cell Line | relative viability (17-AAG + Palbociclib; first compound 0.00128 µM) | relative viability (17-AAG + Palbociclib; first compound 0.004048 µM) | relative viability (17-AAG + Palbociclib; first compound 0.0128 µM) | relative viability (17-AAG + Palbociclib; first compound 0.04048 µM) | relative viability (17-AAG + Palbociclib; first compound 0.128 µM) | relative viability (17-AAG + Luminespib; first compound 0.00128 µM) | relative viability (17-AAG + Luminespib; first compound 0.004048 µM) | relative viability (17-AAG + Luminespib; first compound 0.0128 µM) | relative viability (17-AAG + Luminespib; first compound 0.04048 µM) | relative viability (17-AAG + Luminespib; first compound 0.128 µM) | relative viability (17-AAG + OSI-027; first compound 0.00128 µM) | relative viability (17-AAG + OSI-027; first compound 0.004048 µM) | relative viability (17-AAG + OSI-027; first compound 0.0128 µM) | relative viability (17-AAG + OSI-027; first compound 0.04048 µM) | relative viability (17-AAG + OSI-027; first compound 0.128 µM) | relative viability (17-AAG + Pictilisib; first compound 0.00128 µM) | relative viability (17-AAG + Pictilisib; first compound 0.004048 µM) | relative viability (17-AAG + Pictilisib; first compound 0.0128 µM) | relative viability (17-AAG + Pictilisib; first compound 0.04048 µM) | relative viability (17-AAG + Pictilisib; first compound 0.128 µM)
1 | LXF-289 | 0.606 | 0.55 | 0.602 | 0.545 | 0.227 | 0.628 | 0.556 | 0.377 | 0.121 | 0.0993 | 0.823 | 0.779 | 0.53 | 0.104 | 0.0657 | 0.823 | 0.805 | 0.239 | 0.107 | 0.0836
2 | CAL-12T | 0.499 | 0.364 | 0.486 | 0.191 | 0.167 | 0.33 | 0.331 | 0.175 | 0.14 | 0.113 | 0.564 | 0.807 | 0.713 | 0.411 | 0.128 | 0.541 | 0.601 | 0.417 | 0.377 | 0.193
3 | COR-L23 | 0.278 | 0.338 | 0.336 | 0.198 | 0.0966 | 0.648 | 0.504 | 0.46 | 0.11 | 0.0893 | 0.853 | 0.786 | 0.817 | 0.661 | 0.0974 | 0.703 | 0.77 | 0.789 | 0.38 | 0.083
4 | NCI-H1755 | 0.435 | 0.443 | 0.471 | 0.425 | 0.33 | 0.479 | 0.444 | 0.364 | 0.273 | 0.223 | 0.773 | 0.69 | 0.602 | 0.197 | 0.114 | 0.446 | 0.407 | 0.229 | 0.126 | 0.09
5 | NCI-H1437 | 0.3 | 0.351 | 0.259 | 0.198 | 0.167 | 1.09 | 0.818 | 0.631 | 0.206 | 0.19 | 0.877 | 0.836 | 0.656 | 0.186 | 0.123 | 0.534 | 0.489 | 0.144 | 0.0969 | 0.0847
6 | NCI-H2085 | 0.51 | 0.472 | 0.479 | 0.443 | 0.337 | 0.521 | 0.447 | 0.462 | 0.345 | 0.314 | 0.845 | 0.859 | 0.763 | 0.521 | 0.29 | 0.474 | 0.416 | 0.448 | 0.475 | 0.529
7 | H3255 | 0.306 | 0.292 | 0.299 | 0.247 | 0.26 | 0.716 | 0.872 | 0.536 | 0.203 | 0.208 | 0.569 | 0.576 | 0.49 | 0.274 | 0.268 | 0.424 | 0.453 | 0.463 | 0.203 | 0.154
8 | NCI-H661 | 0.411 | 0.365 | 0.314 | 0.353 | 0.254 | 0.872 | 0.895 | 0.797 | 0.353 | 0.257 | 0.713 | 0.672 | 0.636 | 0.261 | 0.21 | 0.39 | 0.534 | 0.363 | 0.259 | 0.275
9 | LCLC-103H | 0.5 | 0.471 | 0.489 | 0.477 | 0.464 | 1.04 | 0.891 | 0.98 | 0.999 | 0.798 | 0.484 | 0.496 | 0.478 | 0.515 | 0.383 | 0.58 | 0.583 | 0.669 | 0.73 | 0.712
10 | LOU-NH91 | 0.537 | 0.51 | 0.463 | 0.349 | 0.394 | 0.345 | 0.239 | 0.282 | 0.3 | 0.291 | 0.666 | 0.618 | 0.443 | 0.359 | 0.316 | 0.573 | 0.515 | 0.451 | 0.384 | 0.332
11 | NCI-H1650 | 0.294 | 0.187 | 0.122 | 0.115 | 0.0961 | 0.195 | 0.194 | 0.228 | 0.214 | 0.215 | 0.483 | 0.226 | 0.139 | 0.189 | 0.176 | 0.49 | 0.212 | 0.128 | 0.173 | 0.144
12 | NCI-H322M | 0.463 | 0.511 | 0.468 | 0.425 | 0.366 | 0.663 | 0.274 | 0.285 | 0.274 | 0.289 | 0.465 | 0.364 | 0.329 | 0.285 | 0.271 | 0.553 | 0.564 | 0.523 | 0.259 | 0.279
13 | RERF-LC-KJ | 1.11 | 1.07 | 0.857 | 0.472 | 0.219 | 1.06 | 0.595 | 0.398 | 0.357 | 0.325 | 0.62 | 0.637 | 0.231 | 0.268 | 0.22 | 0.591 | 0.688 | 0.324 | 0.242 | 0.21
14 | NCI-H1651 | 0.496 | 0.563 | 0.511 | 0.451 | 0.302 | 0.884 | 0.774 | 0.394 | 0.213 | 0.186 | 0.749 | 0.685 | 0.683 | 0.395 | 0.143 | 0.568 | 0.54 | 0.363 | 0.148 | 0.131
15 | NCI-H2087 | 0.315 | 0.179 | 0.185 | 0.0984 | 0.108 | 0.17 | 0.158 | 0.159 | 0.131 | 0.0988 | 0.483 | 0.325 | 0.124 | 0.15 | 0.0762 | 0.867 | 0.651 | 0.356 | 0.229 | 0.175
